Test results taken from US7736624B2, “Methods and compositions for diagnostic and therapeutic targeting of COX-2” (priority 2006, dated 2010).
Read-outs that look alike come from different tables or passages of the source.

Legend:
ovine COX-1 = target: T1, ovine COX-1 (Ovis aries, UniProt P05979); assay: IC50 determinations using purified enzymes (TLC assay), COX-1; type: biochemical; settings: assayed against purified enzymes
T1 construct: can be purified from ovine seminal vesicles by standard procedures; from tissue; host or cells: ovine seminal vesicles
T1 sequence (P05979 25-600): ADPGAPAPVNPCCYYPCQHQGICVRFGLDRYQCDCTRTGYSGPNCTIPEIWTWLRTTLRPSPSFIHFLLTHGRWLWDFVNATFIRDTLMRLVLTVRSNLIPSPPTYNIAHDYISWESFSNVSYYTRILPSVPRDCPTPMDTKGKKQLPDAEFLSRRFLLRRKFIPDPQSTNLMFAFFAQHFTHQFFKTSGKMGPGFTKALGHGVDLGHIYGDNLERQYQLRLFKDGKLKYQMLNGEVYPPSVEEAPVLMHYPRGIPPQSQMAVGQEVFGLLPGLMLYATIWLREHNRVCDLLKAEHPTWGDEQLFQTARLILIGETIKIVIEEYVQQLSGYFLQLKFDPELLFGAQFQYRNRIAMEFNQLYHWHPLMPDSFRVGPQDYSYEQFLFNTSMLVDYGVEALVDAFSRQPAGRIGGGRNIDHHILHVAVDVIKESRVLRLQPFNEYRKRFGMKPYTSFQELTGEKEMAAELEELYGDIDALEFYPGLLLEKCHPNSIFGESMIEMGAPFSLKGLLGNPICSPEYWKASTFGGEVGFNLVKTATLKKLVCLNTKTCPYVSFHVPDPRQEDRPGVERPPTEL
Text: (§1) Those skilled in the art will appreciate that an evaluation of the selectivity and efficacy of binding of the NSAID derivative to the COX-2 enzyme, e.g., after the derivative is synthesized, can be desirable. […] One example of an in vitro screening method takes advantage of the fact that both human and murine recombinant COX-2 can be expressed and isolated in pure form from an Sf9 cell expression system. […] Alternatively, membrane preparations from outdated human platelets can provide a source of human COX-1. […] The reaction is stopped by the addition of ethanol/methanol/1 M citrate, pH 4.0 (30:4:1). The extracted products are separated by thin layer chromatography (TLC), which allows quantitation of total product formation as well as assessment of product distribution. This assay is useful to define IC50 values for inhibition of either enzyme, and to determine time-dependency of inhibition. It also provides information concerning changes in products formed as a result of inhibition.
(§2) Reactions were terminated by solvent extraction in Et2O/CH3OH/1 M citrate, pH 4.0 (30:4:1). The phases were separated by centrifugation at 2000 g for 5 minutes and the organic phase was spotted on a 20×20 cm TLC plate (Lieselgel 60, EMD Chemicals, Inc., Gibbstown, N.J., United States of America). The plate was developed in EtOAc/CH2Cl2/glacial AcOH (75:25:1) at 4° C. Radiolabeled prostanoid products were quantitatively determined with a radioactivity scanner available from Bioscan, Inc. (Washington, D.C., United States of America). The percentage of total products observed at different concentrations of the presently disclosed compositions was divided by the percentage of products observed for protein samples preincubated for the same amount of time with DMSO.

COX-2 = target: T2, COX-2 (Homo sapiens, UniProt P35354); assay: IC50 determinations using purified enzymes (TLC assay), COX-2; type: biochemical; design: made in house; host or cells: Sf9 insect cells
T2 sequence (P35354 18-604): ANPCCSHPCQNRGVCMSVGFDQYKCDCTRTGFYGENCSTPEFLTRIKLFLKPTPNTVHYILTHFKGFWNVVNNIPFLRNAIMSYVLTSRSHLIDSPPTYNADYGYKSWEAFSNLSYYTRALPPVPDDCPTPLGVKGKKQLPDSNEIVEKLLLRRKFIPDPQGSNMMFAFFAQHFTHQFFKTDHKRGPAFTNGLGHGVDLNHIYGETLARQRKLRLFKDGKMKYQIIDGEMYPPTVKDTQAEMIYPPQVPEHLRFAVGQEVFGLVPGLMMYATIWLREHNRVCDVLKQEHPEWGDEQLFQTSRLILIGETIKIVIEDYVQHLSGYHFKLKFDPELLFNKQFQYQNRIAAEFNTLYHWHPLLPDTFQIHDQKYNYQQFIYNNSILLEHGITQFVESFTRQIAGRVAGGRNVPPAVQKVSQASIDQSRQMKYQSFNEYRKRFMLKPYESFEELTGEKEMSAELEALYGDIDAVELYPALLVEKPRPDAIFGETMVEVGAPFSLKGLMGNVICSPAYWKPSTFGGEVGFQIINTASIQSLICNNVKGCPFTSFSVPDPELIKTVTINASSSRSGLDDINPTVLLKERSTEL
Text: as §1, §2

[1] = Table 3, assayed against purified enzymes, read-out: IC50 COX-2
[2] = Table 2, assayed against purified enzymes, read-out: IC50 COX-2

| Structure (SMILES) | IC50 (ovine COX-1; Table 3) | IC50 (COX-2; [1]) | further results |
| --- | --- | --- | --- |
| COc1ccc2c(c1)c(CC(=O)NCCCNC(=S)Nc1ccc(-c3c4ccc(=O)cc-4oc4cc(O)ccc34)c(C(=O)O)c1)c(C)n2C(=O)c1ccc(Cl)cc1 [Compound 27kk] | > 25 µM | > 25 µM | – |
| COc1ccc2c(c1)c(CC(=O)NCCCCNC(=S)Nc1ccc(-c3c4ccc(=O)cc-4oc4cc(O)ccc34)c(C(=O)O)c1)c(C)n2C(=O)c1ccc(Cl)cc1 [Compound 27ll] | > 25 µM | 3.1 µM | – |
| CCN(CC)c1ccc2c(-c3ccc(S(=O)(=O)NCCCCNC(=O)Cc4c(C)n(C(=O)c5ccc(Cl)cc5)c5ccc(OC)cc45)cc3S(=O)(=O)[O-])c3ccc(=[N+](CC)CC)cc-3oc2c1 [Compound 27lll] | > 25 µM | > 25 µM | – |
| COc1ccc2c(c1)c(CC(=O)NCCCCNC(=O)c1ccc(C(=O)O)c(-c3c4cc(F)c(=O)cc-4oc4cc(O)c(F)cc34)c1)c(C)n2C(=O)c1ccc(Cl)cc1 [Compound 27mm] | 22.5 µM | 3.2 µM | – |
| CCCCNC(=O)Cc1c(C)n(C(=O)c2ccc(Cl)cc2)c2ccc(OC)cc12 [Compound 27nnn] | > 25 µM | > 25 µM | – |
| COc1ccc2c(c1)c(CC(=O)NCCCCNC(=O)CCCCCNC(=O)c1ccc(-c3c4ccc(=O)cc-4oc4cc(O)ccc34)c(C(=O)O)c1)c(C)n2C(=O)c1ccc(Cl)cc1 [Compound 27oo] | > 25 µM | > 25 µM | – |
| COc1ccc2c(c1)c(CC(=O)NCCCCOC(=O)CCC(=O)O[C@H]1c3cc4c(cc3[C@@H](c3cc(OC)c(OC)c(OC)c3)[C@H]3C(=O)OC[C@@H]31)OCO4)c(C)n2C(=O)c1ccc(Cl)cc1 [Compound 27p] | – | – | IC50 (ovine COX-1; Table 1): > 4 µM; IC50 (COX-2; purified enzyme, read-out: COX-2 IC50): 0.147 µM |
| COc1ccc2c(c1)c(CC(=O)NCCCCNC(=O)c1ccc(-c3c4ccc(=O)cc-4oc4cc(O)ccc34)c(C(=O)O)c1)c(C)n2C(=O)c1ccc(Cl)cc1 [Compound 27pp] | > 25 µM | > 25 µM | – |
| CCN1C(=CC=CC=CC2=[N+](CCCCS(=O)(=O)[O-])c3ccc4ccccc4c3C2(C)C)C(C)(C)c2cc(CC(=O)NCCCCNC(=O)Cc3c(C)n(C(=O)c4ccc(Cl)cc4)c4ccc(OC)cc34)ccc21 [Compound 27qqq] | > 25 µM | 0.5 µM | – |
| COc1ccc2c(c1)c(CC(=O)NCCNC(=O)/C=C(C)/C=C/C=C(C)\C=C\C1=C(C)CCCC1(C)C)c(C)n2C(=O)c1ccc(Cl)cc1 [Compound 27s] | – | – | IC50 (ovine COX-1; Table 2): > 25 µM; IC50 (COX-2; [2]): 0.388 µM |
| COc1ccc2c(c1)c(CC(=O)N1CCN(C(=O)c3ccc(C(=O)O)c(-c4c5ccc(=O)cc-5oc5cc(O)ccc45)c3)CC1)c(C)n2C(=O)c1ccc(Cl)cc1 [Compound 27tt] | > 25 µM | > 25 µM | – |
| COc1ccc2c(c1)c(CC(=O)Nc1ccc(S(=O)(=O)Nc3cc(OC)nc(OC)n3)cc1)c(C)n2C(=O)c1ccc(Cl)cc1 [Compound 27u] | – | – | IC50 (COX-2; [2]): 0.148 µM |
| COc1ccc2c(c1)c(CC(=O)OCCN1CCN(CCCN3c4ccccc4Sc4ccc(Cl)cc43)CC1)c(C)n2C(=O)c1ccc(Cl)cc1 [Compound 27v] | – | – | IC50 (ovine COX-1; Table 2): > 25 µM; IC50 (COX-2; [2]): 0.387 µM |
| COc1ccc2c(c1)c(CC(=O)NCCCCNC(=O)c1ccc(C(=O)[O-])c(-c3c4ccc(=[N+](C)C)cc-4oc4cc(N(C)C)ccc34)c1)c(C)n2C(=O)c1ccc(Cl)cc1 [Compound 27xx] | > 25 µM | > 25 µM | – |
| COc1ccc2c(c1)c(CC(=O)NCCCNC(=O)c1ccc(C(=O)[O-])c(C3=c4cc5c6c(c4Oc4c3cc3c7c4CCCN7CCC3)CCC[N+]=6CCC5)c1)c(C)n2C(=O)c1ccc(Cl)cc1 [Compound 27yy] | > 25 µM | > 25 µM | – |
| Cc1ccc(-c2cc(CCC(=O)O)nn2-c2ccc(S(C)(=O)=O)cc2)cc1 [Compound 29e] | – | – | IC50 (COX-2; [2]): > 25 µM |
